The values that follow come from patent US8865704B2, “Wnt pathway antagonists” (Siena Biotech S.p.A., priority 2009, dated 2014).

This test has as its system Wnt/β-catenin pathway. Put plainly: Wnt reporter assay (TCF-Luciferase, Firefly) in DBTRG-05MG cells. Type of test: cell-based. Particulars: Homo sapiens, 24 hours after compound addition. The procedure: TCF-Luciferase: Three copies of a 4×TCF responsive elements were cloned into the pcDNA3.1/Zeo(+) vector (Invitrogen) after deletion of the constitutive CMV promoter and the insertion of the Firefly Luciferase from Promega (phFL-TK) to measure the activity of the Wnt/β-catenin pathway. The resulting plasmid was sequenced for quality control.
Cells were grown in 20 μg/ml Zeocin and 20 μg/ml Zeocin plus 30 μg/ml Hygromicin respectively. The cells were plated at a density of 6500 cells/well in poly-D-lysine pre-treated 96 well-plates.
IC50 determination: 36 hours after plating cells were incubated with 8-points (60 μM-40 μM-20 μM-10 μM-5 μM-1.66 μM-0.55 μM-0.185 μM) dilutions compound (0.6% DMSO (v/v)). Each compound was tested in triplicate in single plate. Luciferase detection was done with Dual-Luciferase Reporter Assay System (Promega). 24 hours after compound addition, media was removed and 30 μl of 1× lysis buffer was added to each well for 30 minutes. To each well 45 μl of Dual-Glo Luciferase reagent (Promega) were added and after 1 second delay Luciferase was detected for 1 second using Mithras LB940 instrument. After Firefly luciferase quantification 45 μl of Dual Stop & Glo reagent (Promega) were added to each well and Firefly Renilla was detected using the same parameters described before.
Data were expressed as % of control for Firefly and Renilla luciferase independently; values were calculated using XLFit version 4.2, with a four parameters sigmoid function (XLFit model 205).
(In general: In a reporter assay the amount or activity of a reporter protein is the signal.)

As for `COc1ccc2c(c1)c(=O)n(C[C@H]1CC[C@H](C(=O)N3CCN(CC4CC4)C(=O)C3)CC1)c(=O)n2C` [Example 132], the IC50 (in general, the concentration at which inhibition is half-maximal) is 0.3 to 30 µM. Next, `COCC(=O)N1CCN(C(=O)[C@H]2CC[C@H](Cn3c(=O)[nH]c4ccc(OC)cc4c3=O)CC2)[C@@H](C)C1` [Example 133]: 0.3 to 30 µM; `COc1ccc2[nH]c(=O)n(C[C@H]3CC[C@H](C(=O)N4CCN(C(=O)C5CC5)CC4)CC3)c2c1` [Example 134]: 0.3 to 30 µM; `COCCC(=O)N1CCN(C(=O)[C@H]2CC[C@H](Cn3c(=O)c4cc(OC)ccc4n(C)c3=O)CC2)CC1` [Example 137]: 0.3 to 30 µM. In turn, `COc1ccc2c(c1)c(=O)n(C[C@H]1CC[C@H](C(=O)N3CCN(C(=O)C4CC4)C[C@H]3C)CC1)c(=O)n2C` [Example 138] gave an IC50 of 0.3 to 30 µM.

`COc1ccc2[nH]c(=O)n(C[C@H]3CC[C@H](C(=O)N4CCN(c5ccncc5)CC4)CC3)c(=O)c2c1` [Example 139] registered an IC50 of 0.3 to 30 µM.

In the case of `COc1ccc2[nH]c(=O)n(C[C@H]3CC[C@H](C(=O)N4CCN(c5cccc(OC)n5)CC4)CC3)c(=O)c2c1` [Example 140], the IC50 lay within 0.3 to 30 µM. The figure for `COc1ccc2c(c1)c(=O)n(C[C@H]1CC[C@H](C(=O)N3CCN(C(=O)COC(C)C)CC3)CC1)c(=O)n2C` [Example 141] is 0.3 to 30 µM; for `COc1ccc2c(c1)c(=O)n(C[C@H]1CC[C@H](C(=O)N3CCN(C(=O)C(C)OC)CC3)CC1)c(=O)n2C` (stereo partly drawn) [Example 142] it is 0.3 to 30 µM; for `Cc1ccc2[nH]c(=O)n(C[C@H]3CC[C@H](C(=O)N4CCN(C(=O)C(C)C)CC4)CC3)c(=O)c2c1` [Example 143] it is 0.3 to 30 µM. The molecule `COCC(=O)N1CCN(C(=O)[C@H]2CC[C@H](Cn3c(=O)c4cc(OC)ccc4n(C)c3=O)CC2)[C@H](C)C1` [Example 144] displayed a half-inhibitory concentration (IC50) of 0.3 to 30 µM. The figure for `COCC(=O)N1CCN(C(=O)[C@H]2CC[C@H](Cn3c(=O)c4cc(OC)ccc4n(C)c3=O)CC2)[C@@H](C)C1` [Example 145] is 0.3 to 30 µM; for `COc1ccc2c(c1)c(=O)n(C[C@H]1CC[C@H](C(=O)N3CCN(C(=O)c4ccncn4)CC3)CC1)c(=O)n2C` [Example 147] it is 0.3 to 30 µM.

For the molecule `COc1ccc2c(c1)c(=O)n(C[C@H]1CC[C@H](C(=O)Nc3ccc(C)nc3)CC1)c(=O)n2C` [Example 148], the IC50 is 0.3 to 30 µM. The figure for `COCC(=O)N1CCN(C(=O)[C@H]2CC[C@H](Cn3c(=O)c4cc(OC)ccc4n(C)c3=O)CC2)C[C@@H]1C` [Example 149] is 0.3 to 30 µM; for `COc1ccc2c(c1)c(=O)n(C[C@H]1CC[C@H](C(=O)N3CCN(C(=O)C4CC4)[C@H](C)C3)CC1)c(=O)n2C` [Example 150] it is 0.3 to 30 µM. In turn, `COCC(=O)N1CCN(C(=O)[C@H]2CC[C@H](Cn3c(=O)c4cc(OC)ccc4n(C)c3=O)CC2)C[C@H]1C` [Example 151] gave a 50% inhibitory concentration (IC50) of 0.3 to 30 µM. `COc1ccc2[nH]c(=O)n(C[C@H]3CC[C@H](C(=O)N4CCN(C(=O)C5CC5)[C@@H](C)C4)CC3)c(=O)c2c1` [Example 152] registered a half-maximal inhibitory concentration (IC50) of 0.3 to 30 µM. As to `COc1ccc2c(c1)c(=O)n(C[C@H]1CC[C@H](C(=O)Nc3cccnc3)CC1)c(=O)n2C` [Example 153], the 50% inhibitory concentration (IC50) is 0.3 to 30 µM.

On to `COc1ccc2c(c1)c(=O)n(C[C@H]1CC[C@H](C(=O)Nc3ccc(OC)nc3)CC1)c(=O)n2C` [Example 154], for which the IC50 fell in the range of 0.3 to 30 µM.

The molecule `COc1ccc2c(c1)c(=O)n(C[C@H]1CC[C@H](C(=O)Nc3ccc(OC)nc3OC)CC1)c(=O)n2C` [Example 155] showed an IC50 of 0.3 to 30 µM. Next, `COc1ccc2c(c1)c(=O)n(C[C@H]1CC[C@H](C(=O)N3CCN(C(=O)C4CC4)[C@@H](C)C3)CC1)c(=O)n2C` [Example 156]: 0.3 to 30 µM.

`COc1ccc2[nH]c(=O)n(C[C@H]3CC[C@H](C(=O)N4CCN(C(=O)C5CC5)[C@H](C)C4)CC3)c(=O)c2c1` [Example 157] came in with an IC50 of 0.3 to 30 µM. Consider `COc1ccc2[nH]c(=O)n(C[C@H]3CC[C@H](C(=O)N4CCN(C(=O)C5CC5)CC4)CC3)c2n1` [Example 158], for which the half-maximal inhibitory concentration (IC50) fell in the range of 0.3 to 30 µM.
